One assay has as its target T1, Galanin receptor type 3 (Homo sapiens, UniProt O60755).
T1 sequence (O60755 whole entry): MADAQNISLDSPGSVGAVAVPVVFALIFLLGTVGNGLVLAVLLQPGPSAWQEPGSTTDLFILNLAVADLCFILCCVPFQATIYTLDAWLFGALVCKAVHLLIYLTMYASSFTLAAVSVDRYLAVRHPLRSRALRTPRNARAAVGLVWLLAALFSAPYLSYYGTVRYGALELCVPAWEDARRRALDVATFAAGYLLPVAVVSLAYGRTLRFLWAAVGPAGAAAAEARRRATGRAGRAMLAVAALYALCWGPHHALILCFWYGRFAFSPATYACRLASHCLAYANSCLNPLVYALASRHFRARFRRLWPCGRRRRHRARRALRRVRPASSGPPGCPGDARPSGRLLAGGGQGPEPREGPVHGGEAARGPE
Briefly: Fluorescence-based cell-based primary high throughput dose response assay to identify antagonists of the Galanin Receptor 3 (GalR3). In kind it is functional.

Assay [1] can be described thus: Luminescence Cell-Based Dose Confirmation HTS to Identify Inhibitors of Platelet Dense Granule Release. [Related pubchem assays: 1663 (Primary HTS), 1678 (Summary of Project)]. Type of assay: functional.
Another assay is described as follows: cells. Type of assay: functional, cell-based. The settings on record: HEK-CNG.
Assay [2] deals with Luciferin 4-monooxygenase (Photinus pyralis, UniProt P08659). Briefly: firefly luciferase enzyme inhibitors, dose response, biochemical, luminescence (AID 1891).
Assay [3] deals with T2, Interleukin-8 (Homo sapiens, UniProt P10145).
T2 sequence (P10145 whole entry): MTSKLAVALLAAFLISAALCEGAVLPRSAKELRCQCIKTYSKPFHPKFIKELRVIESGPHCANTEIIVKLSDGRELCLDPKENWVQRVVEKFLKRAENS
Briefly: Dose Response confirmation of uHTS small molecule hits for cystic fibrosis induced NFkb Inhibitors in a PAF-induced IL8 counterscreen. In kind it is functional. Conditions: read-out: IC50_Mean.

Assay [4] concerns the target T2, Interleukin-8. Briefly: Dose Response confirmation of uHTS small molecule hits for cystic fibrosis induced NFkb Inhibitors in a TNFa-induced IL8 counterscreen. In kind it is functional. The settings on record: read-out: IC50_Mean. A general note: A counterscreen serves to expose hits that act by an unwanted route or on another target.
A short description of assay [5]: P. falciparum Dd2 growth inhibitors, dose response, SYBR Green, dry powder samples (AID 1159566).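 Also: potency for growth inhibition with lower SYBR green DNA signal.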 Type of assay: functional, cell-based.
Assay [6] can be described thus: P. falciparum ATP4 D1247Y mutant growth inhibitors, dose response, NITD609-resistant line, SYBR Green, dry powder (AID 1159571).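 Also: parasites synchronized at ring stage by sorbitol before testing.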 Type of assay: functional, cell-based.
A short description of assay [7]: HepG2 cell cytotoxicity, dose response, cytotoxicity control, plate reader, dry powder samples (AID 1159569).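 Also: inhibitor potency with signal falling toward the positive control level.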 In kind it is functional, cell-based.
Assay [8] is described as follows: P. falciparum Dd2 growth inhibitors, dose response, SYBR Green, cherry-picked samples (AID 1159567). In kind it is functional, cell-based.
A short description of assay [9]: HepG2 cell cytotoxicity, dose response, cytotoxicity control, cherry-picked samples (AID 1159577). Type of assay: functional, cell-based.
Assay [10] is described as follows: P. falciparum 3D7-ScDHODH growth inhibitors, dose response, SYBR Green, dry powder samples (AID 1159570).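 Also: parasite growth measured after 72 hours of compound exposure.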 Type of assay: functional, cell-based.
Assay [11] is described as follows: THP-1 cell cytotoxicity, dose response, cytotoxicity control for Vif-APOBEC3G degradation inhibitor project, THP-1 cells (AID 1117359). Type of assay: functional. Conditions: Human immunodeficiency virus 1, THP-1.
For the next assay, the system named is INS1. Briefly: beta cell apoptosis inhibitors, cytokine rescue, dose response, luminescence, retest (AID 449756).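 Also: cell death triggered by IL-1 beta plus TNF-alpha plus IFN-gamma mixture; protective hits raise ATP signal compared with cytokine alone wells.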 Type of assay: functional, cell-based. Conditions: Rattus norvegicus.
Assay [12] is described as follows: cytotoxicity toward NIH3T3 fibroblasts, dose response, counter-screen, cell-based, ATP luminescence, mouse fibroblasts (AID 2010).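 Also: cells exposed to compound for about 90 hours before reading.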 In kind it is functional.
A short description of assay [13]: HeLa cell cytotoxicity, dose response, cytotoxicity control for MgcRacGAP inhibitor project (AID 624300). In kind it is functional.
The nature of assay [14]: inhibitors of intracellular T. cruzi replication, confirmation, NIH3T3 host cells, beta-gal luminescence (AID 2044).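 Also: intracellular parasites grown in NIH/3T3 mouse fibroblasts as host cells; luminescent beta-galactosidase reporter signal from transgenic T. cruzi replicating inside host cells; inhibitors lower the luminescence signal.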 Type of assay: functional, cell-based.
The test system of another assay is Vero. Briefly: cells. In kind it is functional. Conditions: Chlorocebus sabaeus.
Assay [15] deals with T3, Fatty acid synthase (Homo sapiens, UniProt P49327). Briefly: FAS thioesterase domain inhibitors, dose response, biochemical, kinetic fluorescence intensity (AID 624326).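 Also: rate of fluorescence rise from hydrolysis of a fluorogenic O-methyl fluorescein ester substrate.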 In kind it is functional.
Assay [16] addresses T3, Fatty acid synthase. The assay can be described thus: FAS thioesterase domain inhibitors, dose response, biochemical, endpoint fluorescence intensity, uHTS hits (AID 624327).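 Also: fluorescence from hydrolysis of an O-methyl fluorescein acyl ester substrate by the enzyme.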 In kind it is functional.
For assay [17], the target named is T4, Rac GTPase-activating protein 1 (Homo sapiens, UniProt Q9H0H5).
T4 sequence (Q9H0H5 whole entry): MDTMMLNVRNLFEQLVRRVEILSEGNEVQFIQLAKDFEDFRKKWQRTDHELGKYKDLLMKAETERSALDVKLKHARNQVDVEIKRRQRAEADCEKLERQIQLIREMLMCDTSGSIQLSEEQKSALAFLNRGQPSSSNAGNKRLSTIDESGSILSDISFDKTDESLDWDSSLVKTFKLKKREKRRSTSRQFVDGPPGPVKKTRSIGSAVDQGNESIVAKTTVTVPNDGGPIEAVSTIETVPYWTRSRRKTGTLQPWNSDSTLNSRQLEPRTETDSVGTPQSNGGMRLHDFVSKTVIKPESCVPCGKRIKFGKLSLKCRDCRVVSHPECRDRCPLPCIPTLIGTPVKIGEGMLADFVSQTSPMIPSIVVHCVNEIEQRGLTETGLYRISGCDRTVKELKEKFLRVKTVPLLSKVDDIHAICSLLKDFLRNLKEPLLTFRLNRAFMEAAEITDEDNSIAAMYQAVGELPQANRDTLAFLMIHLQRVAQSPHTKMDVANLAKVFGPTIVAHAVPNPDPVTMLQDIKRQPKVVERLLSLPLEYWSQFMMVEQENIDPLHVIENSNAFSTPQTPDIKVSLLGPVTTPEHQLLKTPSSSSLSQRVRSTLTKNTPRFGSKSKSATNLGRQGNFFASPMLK
The assay can be described thus: MgcRacGAP GTPase-activating activity inhibitors, confirmation, biochemical, ADP Hunter fluorescence, primary and confirmatory (AID 624330). Type of assay: functional.

Assay [18] has as its target Photoreceptor-specific nuclear receptor (Homo sapiens, UniProt Q9Y5X4). Type of assay: functional, cell-based.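 Also: CHO-S cells with Gal4-NCOR and VP16-NR2E3 two-hybrid luciferase reporter.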
Assay [19] in a line: Luminescence-based cell-based high throughput dose response assay to identify activators of the DAF-12 from the parasite S. stercoralis (ssDAF-12). In kind it is functional.
The target of assay [20] is T5, Oxysterols receptor LXR-beta (Homo sapiens, UniProt P55055).
T5 sequence (P55055 whole entry): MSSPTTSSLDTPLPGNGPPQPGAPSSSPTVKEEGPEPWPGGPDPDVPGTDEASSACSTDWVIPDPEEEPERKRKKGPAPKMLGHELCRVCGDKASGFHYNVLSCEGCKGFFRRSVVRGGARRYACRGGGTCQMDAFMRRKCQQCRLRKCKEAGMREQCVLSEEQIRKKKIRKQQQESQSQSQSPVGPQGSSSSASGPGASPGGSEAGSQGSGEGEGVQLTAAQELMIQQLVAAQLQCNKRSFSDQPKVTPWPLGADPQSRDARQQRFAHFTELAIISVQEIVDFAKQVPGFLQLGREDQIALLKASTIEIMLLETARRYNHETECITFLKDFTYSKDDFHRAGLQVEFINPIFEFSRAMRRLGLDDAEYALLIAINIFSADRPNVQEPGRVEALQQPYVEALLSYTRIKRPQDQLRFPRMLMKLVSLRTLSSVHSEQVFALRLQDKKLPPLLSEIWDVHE
The assay can be described thus: LXR agonists, Gal4 luciferase reporter, dose response, counter-screen for ssDAF-12 agonist project, cell-based, luminescence, HEK293, S. stercoralis campaign (AID 720737). Type of assay: functional. Conditions: read-out: IC50 (the source's name).

A short description of assay [21]: inhibitors of SNCA 5'UTR-driven reporter translation, confirmation, H4 neuroglioma cells, luminescence (AID 1988). In kind it is functional, cell-based.
Assay [22] can be described thus: Luminescence Cell-Based Dose Response HTS to Identify Inhibitors of 5'UTR Stem-Loop Driven Prion Protein mRNA Translation in H4 Neuroglioblastoma Cells. [Related pubchem assays: 1827 (Project Summary), 1813 (Primary HTS)]. Type of assay: functional.
The target in a further assay is T6, Protein Tat (Human immunodeficiency virus type 1 group M subtype B (isolate HXB2)(HIV-1), UniProt P04608).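 Also: tat binding to TAR RNA read out by fluorescence polarization.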
T6 sequence (P04608 whole entry): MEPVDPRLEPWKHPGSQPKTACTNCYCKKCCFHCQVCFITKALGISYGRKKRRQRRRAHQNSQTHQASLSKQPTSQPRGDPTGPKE
Type of assay: functional.

Active and inactive are the calls of the source. A value given as a limit tells only on which side of the number the result lay.

For orientation: AC50 means the concentration at which the activity in the assay is half-maximal. Usually CC50 stands for the concentration that lowers cell viability or growth by half.

T3 sequence (P49327 whole entry, the tested form may be a part): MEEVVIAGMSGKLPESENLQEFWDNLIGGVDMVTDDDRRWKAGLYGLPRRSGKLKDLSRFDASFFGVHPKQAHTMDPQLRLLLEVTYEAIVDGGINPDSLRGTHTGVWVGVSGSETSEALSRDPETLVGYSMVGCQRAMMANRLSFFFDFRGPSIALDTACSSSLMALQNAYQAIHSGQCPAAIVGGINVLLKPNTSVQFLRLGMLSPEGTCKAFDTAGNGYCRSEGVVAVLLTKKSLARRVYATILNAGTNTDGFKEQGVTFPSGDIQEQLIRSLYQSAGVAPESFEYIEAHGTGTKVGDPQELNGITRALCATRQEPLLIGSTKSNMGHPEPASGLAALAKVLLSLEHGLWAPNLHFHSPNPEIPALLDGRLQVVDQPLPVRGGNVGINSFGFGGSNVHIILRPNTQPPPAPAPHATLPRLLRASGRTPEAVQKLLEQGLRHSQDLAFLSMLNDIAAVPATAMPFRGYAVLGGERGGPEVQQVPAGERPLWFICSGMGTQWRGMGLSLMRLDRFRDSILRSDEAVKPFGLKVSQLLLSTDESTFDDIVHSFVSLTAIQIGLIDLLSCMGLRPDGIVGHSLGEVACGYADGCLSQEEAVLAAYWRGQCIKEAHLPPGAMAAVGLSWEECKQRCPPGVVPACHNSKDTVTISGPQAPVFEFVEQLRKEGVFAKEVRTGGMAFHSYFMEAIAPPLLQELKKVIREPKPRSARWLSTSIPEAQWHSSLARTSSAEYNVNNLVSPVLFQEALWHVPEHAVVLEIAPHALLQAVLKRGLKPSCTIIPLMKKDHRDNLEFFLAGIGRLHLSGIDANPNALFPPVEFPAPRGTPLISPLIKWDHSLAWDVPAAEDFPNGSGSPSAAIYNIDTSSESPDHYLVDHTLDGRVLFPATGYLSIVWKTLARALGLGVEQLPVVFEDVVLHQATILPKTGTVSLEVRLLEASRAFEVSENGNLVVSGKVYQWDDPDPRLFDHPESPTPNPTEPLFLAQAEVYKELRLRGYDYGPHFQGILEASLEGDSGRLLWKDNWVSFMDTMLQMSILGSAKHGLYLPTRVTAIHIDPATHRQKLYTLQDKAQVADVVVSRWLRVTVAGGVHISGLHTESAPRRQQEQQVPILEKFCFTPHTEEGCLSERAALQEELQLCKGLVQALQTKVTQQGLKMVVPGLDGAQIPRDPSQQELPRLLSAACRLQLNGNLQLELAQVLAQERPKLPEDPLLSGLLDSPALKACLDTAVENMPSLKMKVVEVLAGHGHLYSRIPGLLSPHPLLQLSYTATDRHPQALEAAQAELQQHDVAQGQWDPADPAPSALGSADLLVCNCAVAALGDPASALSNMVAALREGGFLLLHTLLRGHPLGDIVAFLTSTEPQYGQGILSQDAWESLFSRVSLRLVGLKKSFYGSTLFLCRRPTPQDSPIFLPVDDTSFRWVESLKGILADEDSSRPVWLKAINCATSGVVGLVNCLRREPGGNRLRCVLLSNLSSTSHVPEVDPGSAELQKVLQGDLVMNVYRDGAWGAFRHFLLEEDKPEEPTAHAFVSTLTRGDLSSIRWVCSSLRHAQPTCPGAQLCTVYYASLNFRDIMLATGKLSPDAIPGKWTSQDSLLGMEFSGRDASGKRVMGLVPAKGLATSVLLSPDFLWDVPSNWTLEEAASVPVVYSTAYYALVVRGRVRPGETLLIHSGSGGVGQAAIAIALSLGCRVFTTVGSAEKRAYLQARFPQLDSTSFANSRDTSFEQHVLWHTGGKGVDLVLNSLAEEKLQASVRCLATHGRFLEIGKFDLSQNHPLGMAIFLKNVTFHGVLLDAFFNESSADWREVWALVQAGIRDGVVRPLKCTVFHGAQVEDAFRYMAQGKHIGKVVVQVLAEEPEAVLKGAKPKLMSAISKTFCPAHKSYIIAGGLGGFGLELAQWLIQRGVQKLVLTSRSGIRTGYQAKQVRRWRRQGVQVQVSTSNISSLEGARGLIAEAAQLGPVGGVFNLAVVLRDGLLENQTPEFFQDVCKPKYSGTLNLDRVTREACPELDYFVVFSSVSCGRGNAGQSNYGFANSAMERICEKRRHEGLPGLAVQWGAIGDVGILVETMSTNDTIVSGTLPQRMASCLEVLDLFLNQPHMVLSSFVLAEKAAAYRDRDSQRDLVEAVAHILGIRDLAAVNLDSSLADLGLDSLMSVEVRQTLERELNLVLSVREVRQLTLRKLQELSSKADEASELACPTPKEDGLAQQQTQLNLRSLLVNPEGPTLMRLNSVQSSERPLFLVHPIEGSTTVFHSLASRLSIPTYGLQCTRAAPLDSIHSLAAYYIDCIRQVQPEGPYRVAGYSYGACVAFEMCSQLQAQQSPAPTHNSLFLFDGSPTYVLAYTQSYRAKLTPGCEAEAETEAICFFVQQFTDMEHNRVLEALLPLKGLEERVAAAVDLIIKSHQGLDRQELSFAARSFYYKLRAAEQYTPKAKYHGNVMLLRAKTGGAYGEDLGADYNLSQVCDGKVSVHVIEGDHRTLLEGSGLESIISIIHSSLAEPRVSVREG
Chain of Luciferin 4-monooxygenase (P08659 whole entry): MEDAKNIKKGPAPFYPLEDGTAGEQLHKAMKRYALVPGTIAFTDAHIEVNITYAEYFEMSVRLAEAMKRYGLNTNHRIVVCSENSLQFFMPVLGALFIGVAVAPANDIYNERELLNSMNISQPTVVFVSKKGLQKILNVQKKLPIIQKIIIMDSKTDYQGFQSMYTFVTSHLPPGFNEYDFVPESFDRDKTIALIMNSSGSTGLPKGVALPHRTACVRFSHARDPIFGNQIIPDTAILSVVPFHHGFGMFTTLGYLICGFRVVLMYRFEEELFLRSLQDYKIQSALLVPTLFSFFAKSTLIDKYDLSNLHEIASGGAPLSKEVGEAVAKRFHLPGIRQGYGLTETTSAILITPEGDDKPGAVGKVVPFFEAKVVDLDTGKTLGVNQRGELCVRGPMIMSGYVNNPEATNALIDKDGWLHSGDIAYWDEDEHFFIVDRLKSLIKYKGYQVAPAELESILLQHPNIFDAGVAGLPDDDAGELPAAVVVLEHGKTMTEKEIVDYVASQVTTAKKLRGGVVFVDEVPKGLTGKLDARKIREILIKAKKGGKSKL
Chain of Photoreceptor-specific nuclear receptor (Q9Y5X4 whole entry, the tested form may be a part): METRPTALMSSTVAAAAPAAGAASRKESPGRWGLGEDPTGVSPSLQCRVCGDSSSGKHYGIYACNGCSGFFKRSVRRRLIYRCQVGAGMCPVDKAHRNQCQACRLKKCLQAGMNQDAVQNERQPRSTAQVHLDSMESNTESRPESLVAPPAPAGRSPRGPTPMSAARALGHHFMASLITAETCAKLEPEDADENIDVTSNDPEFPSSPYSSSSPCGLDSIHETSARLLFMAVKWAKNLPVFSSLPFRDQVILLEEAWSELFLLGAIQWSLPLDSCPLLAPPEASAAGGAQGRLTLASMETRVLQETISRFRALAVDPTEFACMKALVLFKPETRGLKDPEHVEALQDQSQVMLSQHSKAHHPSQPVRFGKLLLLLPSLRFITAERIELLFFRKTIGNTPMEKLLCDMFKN

Take `CC1CC(=O)NN=C1c1ccc(N)c([N+](=O)[O-])c1` (centres undefined): the IC50 at Galanin receptor type 3 is 260 nM (active). Besides, the EC50 in assay [1] is < 88 nM (active); in the assay “cells”, > 29.9 µM (inactive); in assay [2], > 112 µM (not active).
Turning to `O=C(CC12CC3CC(CC(C3)C1)C2)Nc1nncs1`, the results for the IC50 on Interleukin-8 [3] and on Interleukin-8 [4] were 9.42 µM (active) and 3.19 µM (active), respectively.
Take `Cc1ccc(-c2ccc3c(c2)O[C@@H](CN(C)Cc2ccncc2)[C@H](C)CN([C@@H](C)CO)S3(=O)=O)cc1`: the AC50 was 2.2 µM (active) in assay [5]; 2.19 µM (active) in [6]; 24.4 µM (active) in assay [7]; 2.73 µM (active) in assay [8]; > 39 µM (inactive) in assay [9]; 2.23 µM (active) in assay [10].
For `CCCOC(=O)/C(C(=N)NCc1ccccc1)=C(/O)OCCC`, the CC50 in [11] is > 40 µM (active). For the same compound, the AC50 in the assay on INS1 is 97 µM (active).
For `N=C(N)N/N=C/c1ccc(Cl)cc1Cl`, the values for the EC50 in assay [12] and in [14] were 19.4 µM (active) and 204 nM (active), respectively. For the same compound, the CC50 in [13] was 66.3 µM (active); in the assay on Vero, 18.9 µM (active).
Regarding `Cc1nc2ccc([N+](=O)[O-])cc2c(=O)n1Cc1ccc(Cl)cc1`, the values for the IC50 on Fatty acid synthase [15] and at Fatty acid synthase [16] were 1.05 µM (active) and 0.906 µM (active), respectively.
On to `COc1cc(/C=N/NC(=O)c2cccc(NC(=O)c3ccccc3C)c2)ccc1O`, for which, in assay [13], the CC50 is 100 µM (active). Further, in assay [17], the IC50 was 35.9 µM (active).
Consider `Cc1nc(NC(=O)c2c(-c3ccccc3Cl)noc2C)sc1C`, for which the IC50 in assay [18] was 4.19 µM (active).
As to `FC(F)(F)c1ccc(Oc2ccc(Cl)cc2Br)nc1`, the IC50 in [19] was > 67.5 µM (inactive). Further, in assay [20], the EC50 was > 67.5 µM (inactive).
For the compound `COc1cccc(C(=O)Cn2c(=N)n(C)c3ccccc32)c1`, the IC50 in assay [19] is > 67.5 µM (inactive). Further, the results for the EC50 in assay [21], in [22] and in [20] were 6.57 µM (active), 17.7 µM (active) and > 67.5 µM (inactive), respectively.
For `O=C1OC(c2ccc(F)cc2)=C/C1=C\c1ccc([N+](=O)[O-])o1`, the results for the EC50 in assay [12] and in assay [14] were > 60 µM (not active) and 501 nM (active), respectively. For the same compound, the IC50 at Protein Tat was > 100 µM (active).
Regarding `O=C(COC(=O)c1cccc([N+](=O)[O-])c1)NCc1cccs1`, the IC50 at Fatty acid synthase [15] is 18.7 µM (active); on Fatty acid synthase [16], 13.9 µM (active).

Values taken from ChEMBL document CHEMBL1201862, “PubChem BioAssay data set” (2004).
